Experimental data from patent publication US20110190246A1, “ESTRATRIENE DERIVATIVES COMPRISING HETEROCYCLIC BIOISOSTERES FOR THE PHENOLIC A-RING” (Bayer Schering Pharma Aktiengesellschaft, priority 2008, published 2011).

Experiments:
[1] = test system: human cryopreserved hepatocytes; assay: Stability in hepatocytes; format: in vitro ADME; settings: maximal theoretical bioavailability
Method: The metabolic stability of test compounds with respect to phase 1 and phase 2 metabolisms was investigated by incubation of the compounds with hepatocytes. These investigations were performed for characterisation of compounds in case of phase 2 metabolism is to be expected. […] After analytical workup the concentrations of the test compounds after different incubation periods were related to the initial concentration of the respective test compound (zero hour's time point). The resulting area under the concentration-time-curve of the test compound investigated in the assay is used to derive the respective Fmax value.

hepatic gene CaBP = assay: Induction of the hepatic gene CaBP (hepatic estrogenicity); format: in vivo; settings: dose response curves, FIGS. 1-3
From the text: Data regarding the uterine and hepatic activity of example 1 and example 4 in comparison to Ethinylestradiol are shown in FIGS. 1, 2, and 3. Dose response curves describing the increases in relative uterine weight (closed circles) and the induction of the hepatic gene CaBP (open circles) are shown for ethinylestradiol (FIG 1), example 1 (FIG. 2), and example 4 (FIG. 3). […] This may implicate that compounds of example 1 and 4 show lower hepatic estrogenicity if compared to Ethinylestradiol.

ERα [2] = target: T1, ERα (Homo sapiens, UniProt P03372); assay: Induction of alkaline phosphatase in human endometrial Ishikawa cells; format: cell-based; settings: 72 hours, read-out: EC50 Alkaline phoshatase induction, Ishikawa cells
T1 sequence (P03372 1-595): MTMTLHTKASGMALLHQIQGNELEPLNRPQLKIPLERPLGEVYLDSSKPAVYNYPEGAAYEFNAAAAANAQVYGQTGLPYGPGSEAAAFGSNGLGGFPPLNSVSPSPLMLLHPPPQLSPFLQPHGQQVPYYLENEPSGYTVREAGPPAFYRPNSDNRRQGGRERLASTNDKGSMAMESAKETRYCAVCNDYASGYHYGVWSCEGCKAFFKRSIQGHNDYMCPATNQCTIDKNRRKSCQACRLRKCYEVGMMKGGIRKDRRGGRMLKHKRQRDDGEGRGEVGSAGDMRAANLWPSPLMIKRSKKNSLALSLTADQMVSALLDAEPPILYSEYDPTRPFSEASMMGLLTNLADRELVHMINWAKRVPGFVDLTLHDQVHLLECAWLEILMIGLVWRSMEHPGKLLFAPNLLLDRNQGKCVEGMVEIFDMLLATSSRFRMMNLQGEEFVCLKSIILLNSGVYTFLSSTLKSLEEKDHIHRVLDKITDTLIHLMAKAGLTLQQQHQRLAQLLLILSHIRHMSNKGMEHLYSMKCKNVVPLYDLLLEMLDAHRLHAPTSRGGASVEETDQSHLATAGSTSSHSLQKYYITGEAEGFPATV
Method: Alkaline phosphatase is an estrogen target gene in the normal uterine epithelium as well as in endometrial-derived cancer cells, such as Ishikawa cells. […]. Ishikawa cells (from European collection of cell cultures) were maintained in phenolred-free MEM with 5% FCS, 4 mM glutamine, 1% non, essential amino acids and 100 U/ml penicillin and 100 μg/ml streptomycin. […]. On the third day, the media were removed; cells were washed two times with 50 μl PBS and then frozen at −80° C. for 20 min. After thawing at room temperature for 10 min, cells were incubated with 100 μl of 1-Step PNPP reagent (Pierce) and incubated for 1.5 h at room temperature. OD was measured at 405 nm sing a Polarstar Optima. Dose response curves were generated using and ED50 values were calculated using Sigma plot.

[3] = target: T2, estrogen receptor α (ERα) (Homo sapiens, UniProt P03372); assay: Binding to estrogen receptor α (competition with 3H-estradiol); settings: KF = IC50 of test compound / IC50 of estradiol
T2 construct: made in house; host or cells: Hi5 insect cells (baculovirus)
Method: The ERα protein used in the binding assay was purified from cytosolic fractions of Hi5 cells transfected with recombinant bacuioviruses encoding either the human ERα. Aliquots of cytosolic fractions were stored at −80° C. and had protein concentrations of 5-7 mg/ml (as determined by the BCA method).
30 μl of cytosol were added leading to a final volume of 50 μl per well. […] The protein-bound radioactivity was measured by addition of 200 μl Microszint-40 (Canberra Packard) to each well using a TopCount scintillation counter.

ERα [4] = target: T1, ERα; assay: Transactivation assay in U2OS cells; format: cell-based; settings: U2OS cells transiently transfected with ERα and luciferase reporter, 24 hours
ERα [5] = target: T3, ERα (Rattus norvegicus, UniProt P06211); assay: Stimulation of uterine growth in vivo in ovariectomized rats; set-up: species or system Wistar rats; settings: for uterotrophic activity (increase in relative uterine weight): dose response curves, FIGS. 2-3
T3 construct: from tissue; host or cells: uterus of ovariectomized adult female Wistar rats (in vivo)
T3 sequence (P06211 1-600): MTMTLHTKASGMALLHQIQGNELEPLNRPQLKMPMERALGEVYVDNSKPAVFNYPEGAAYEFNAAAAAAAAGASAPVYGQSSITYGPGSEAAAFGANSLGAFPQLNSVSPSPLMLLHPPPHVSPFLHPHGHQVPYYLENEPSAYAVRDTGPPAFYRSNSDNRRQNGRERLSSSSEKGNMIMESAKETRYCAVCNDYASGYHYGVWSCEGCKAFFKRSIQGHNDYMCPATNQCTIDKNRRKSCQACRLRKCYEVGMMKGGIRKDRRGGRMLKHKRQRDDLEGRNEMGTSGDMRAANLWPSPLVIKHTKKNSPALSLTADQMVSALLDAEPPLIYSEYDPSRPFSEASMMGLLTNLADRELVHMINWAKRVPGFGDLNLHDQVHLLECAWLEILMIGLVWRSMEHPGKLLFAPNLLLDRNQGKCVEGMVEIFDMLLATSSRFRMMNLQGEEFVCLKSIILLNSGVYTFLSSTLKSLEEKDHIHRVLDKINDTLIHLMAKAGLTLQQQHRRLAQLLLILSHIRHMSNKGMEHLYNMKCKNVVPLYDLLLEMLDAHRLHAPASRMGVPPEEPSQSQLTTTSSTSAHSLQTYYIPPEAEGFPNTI

ERα [6] = target: T1, ERα; assay: Transactivation assay in stably transfected MCF-7 cells (MVLN assay); format: cell-based; set-up: MCF-7 cells endogenously expressing ERα; endogenous in cells; host or cells: MCF-7 stably transfected with vitellogenin-tk-luciferase reporter (MVLN)
Method: To analyse activation of the ERα by diverse tool compounds in a second cellular system, we used MCF-7 cells endogenously expressing ERα and stably transfected with the estrogen-responsive vitellogenin-tk-luciferase reporter plasmid. […]. Luciferase activity was measured after addition of 25 μl steady-Glo in a TopCount. Dose response curves were generated and EC50 values were calculated using Sigma plot.

[7] = luciferase reporter, Table 2, read-out: MVLN-Transactivation (EC50 in nM)

## C[C@]12CC[C@@H]3c4ccc(O)cc4CC[C@H]3[C@@H]1CC[C@@H]2O [Estradiol, reference compound]
[1]
  Fmax (calculated from hepatocyte stability): 17%

## C#C[C@]1(O)CC[C@H]2[C@@H]3CCc4cc(O)ccc4[C@H]3CC[C@@]21C [Ethinylestradiol, reference compound]
Hepatic gene CaBP
  induction of the hepatic gene CaBP: significant induction of CaBP

## C[C@]12CCC3c4ccc5[nH]ncc5c4CCC3C1CC[C@@H]2O (stereo partly drawn) [Example 1, 2′H-Pyrazolo[3′,4′:3,4]estra-1,3,5(10)-trien-17β-ol]
ERα [2]
  EC50: 0.759 nM
[1]
  Fmax (calculated from hepatocyte stability): 34%
Hepatic gene CaBP
  induction of the hepatic gene CaBP: do not stimulate this hepatic gene
[3]
  ERα binding [KF]: 1.6
ERα [4]
  EC50: 0.082 nM
ERα [5]
  uterotrophic activity (increase in relative uterine weight): full uterotrophic activity
ERα [5]; ovariectomized Wistar rats, subcutaneously daily for 14 days, relative uterine weight
  ED50 Uterine growth: 8.25 μg/kg bodyweight
ERα [6]; [7]
  EC50: 1.41 nM
ERα [6]; vitellogenin-tk-luciferase reporter, 24 hours, Table 1, read-out: EC50 ERα transactivation, MVLN assay
  EC50: 1.42 nM

## C[C@]12CCC3c4ccc5[nH]ncc5c4CCC3C1CCC2=O (some centres unmarked) [Example 2, 2′H-Pyrazolo[3′,4′:3,4]estra-1,3,5(10)-trien-17-one]
ERα [6]; [7]
  EC50: 12.6 nM

## C[C@]1(O)CCC2C3CCc4c(ccc5[nH]ncc45)C3CC[C@@]21C (stereo partly drawn) [Example 3, 17α-Methyl-2′H-pyrazolo[3′,4′:3,4]estra-1,3,5(10)-trien-17β-ol]
ERα [6]; [7]
  EC50: 3.53 nM

## C#C[C@]1(O)CCC2C3CCc4c(ccc5[nH]ncc45)C3CC[C@@]21C (stereo partly drawn) [Example 4, 17α-Ethinyl-2′H-pyrazolo[3′,4′:3,4]estra-1,3,5(10)-trien-17β-ol]
Hepatic gene CaBP
  induction of the hepatic gene CaBP: do not stimulate this hepatic gene
ERα [5]
  uterotrophic activity (increase in relative uterine weight): full uterotrophic activity
ERα [6]; [7]
  EC50: 1.01 nM

## C=C[C@]1(O)CCC2C3CCc4c(ccc5[nH]ncc45)C3CC[C@@]21C (stereo partly drawn) [Example 5, 17α-Vinyl-2′H-pyrazolo[3′,4′:3,4]estra-1,3,5(10)-trien-17β-ol]
ERα [6]; [7]
  EC50: 3.72 nM

## CC[C@]1(O)CCC2C3CCc4c(ccc5[nH]ncc45)C3CC[C@@]21C (stereo partly drawn) [Example 6, 17α-Ethyl-2′H-pyrazolo[3′,4′:3,4]estra-1,3,5(10)-trien-17β-ol]
ERα [6]; [7]
  EC50: 130 nM

## C=CC[C@]1(O)CCC2C3CCc4c(ccc5[nH]ncc45)C3CC[C@@]21C (stereo partly drawn) [Example 7, 17α-Allyl-2′H-pyrazolo[3′,4′:3,4]estra-1,3,5(10)-trien-17β-ol]
ERα [6]; [7]
  EC50: 82.6 nM

## CC#C[C@]1(O)CCC2C3CCc4c(ccc5[nH]ncc45)C3CC[C@@]21C (stereo partly drawn) [Example 8, 17α-(Prop-1-inyl)-2′H-pyrazolo[3′,4′:3,4]estra-1,3,5(10)-trien-17β-ol]
ERα [6]; [7]
  EC50: 16.5 nM

## C[C@]12CCC3c4ccc5[nH]ncc5c4CCC3C1CC[C@@]2(O)C(F)(F)F (stereo partly drawn) [Example 9, 17α-Trifluoromethyl-2′H-pyrazolo[3′,4′:3,4]estra-1,3,5(10)-trien-17β-ol]
ERα [6]; [7]
  EC50: 77.3 nM

## C[C@]12CCC3c4ccc5[nH]ncc5c4CCC3C1CC[C@@]2(O)C(F)(F)C(F)(F)F (stereo partly drawn) [Example 10, 17α-Pentafluoroethyl-2′H-pyrazolo[3′,4′:3,4]estra-1,3,5(10)-trien-17β-ol]
ERα [6]; [7]
  EC50: 270 nM

## C[C@]12CCC3c4ccc5[nH]nnc5c4CCC3C1CCC2=O (some centres unmarked) [Example 11, 3′H-Triazolo[4′,5′:3,4]estra-1,3,5(10)-trien-17-on]
ERα [6]; [7]
  EC50: 308 nM
